Measurements: the NIST ThermoML archive (doi:10.1021/acs.jced.5b00613)

Experiment: xn = mol fraction of the nth substance listed
Settings: Liquid, Vibrating tube method

CCCCCCCCCCCCCCCC [hexadecane] + CCCCCC
mass density [kg/m3]
Settings | 100 kPa | 1000 kPa | 5000 kPa | 10000 kPa | 20000 kPa | 30000 kPa | 40000 kPa | 50000 kPa | 60000 kPa
298.15 K, x2 = 0.1985 | 759.7 | 760.3 | 763 | 766.3 | 772.3 | 777.9 | 783.2 | 788.1 | –
298.15 K, x2 = 0.4136 | 744.4 | 745.1 | 748 | 751.4 | 757.8 | 763.7 | 769.2 | 774.4 | 779.5
298.15 K, x2 = 0.5007 | 736.7 | 737.5 | 740.4 | 744 | 750.4 | 756.5 | 762.2 | 767.5 | 772.6
298.15 K, x2 = 0.5966 | 726.9 | 727.5 | 730.6 | 734.3 | 741.1 | 747.4 | 753.2 | 758.6 | 763.9
298.15 K, x2 = 0.7928 | 700.2 | 700.8 | 704.3 | 708.5 | 715.9 | 722.7 | 729 | 734.8 | 740.4
323.15 K, x2 = 0.1985 | 742.3 | 743.2 | 746.2 | 749.9 | 756.7 | 763 | 768.7 | 774.2 | 779.4
323.15 K, x2 = 0.4136 | 726.2 | 727.1 | 730.4 | 734.4 | 741.6 | 748.3 | 754.3 | 760.1 | 765.4
323.15 K, x2 = 0.5007 | 717.7 | 719.1 | 722.6 | 726.7 | 734.1 | 741 | 747.2 | 753 | 758.5
323.15 K, x2 = 0.5966 | 707.8 | 708.9 | 712.4 | 716.7 | 724.4 | 731.5 | 737.9 | 744 | 749.7
323.15 K, x2 = 0.7928 | 679.1 | 680.6 | 684.7 | 689.6 | 698.3 | 706.2 | 713.2 | 719.7 | 725.7
348.15 K, x2 = 0.1985 | 724.4 | 725.2 | 728.7 | 732.9 | 740.6 | 747.6 | 754 | 760 | 765.6
348.15 K, x2 = 0.4136 | 708 | 709 | 712.8 | 717.3 | 725.6 | 733 | 739.7 | 746 | 751.9
348.15 K, x2 = 0.5007 | 698.3 | 700.1 | 704 | 708.6 | 717.2 | 724.9 | 731.8 | 738.2 | 744.2
348.15 K, x2 = 0.5966 | 687.2 | 689.3 | 693.5 | 698.5 | 707.5 | 715.4 | 722.6 | 729.3 | 735.5
348.15 K, x2 = 0.7928 | 658.2 | 659.5 | 664.5 | 670.2 | 680.3 | 689.2 | 697.1 | 704.3 | 711
373.15 K, x2 = 0.1985 | 706.6 | 707.5 | 711.7 | 716.4 | 725.2 | 733 | 740.1 | 746.6 | 752.7
373.15 K, x2 = 0.4136 | 689.1 | 690.2 | 694.8 | 699.9 | 709.4 | 717.7 | 725.3 | 732.3 | 738.7
373.15 K, x2 = 0.5007 | – | 681 | 685.8 | 691.2 | 701 | 709.7 | 717.5 | 724.6 | 731.2
373.15 K, x2 = 0.5966 | – | 669.9 | 674.9 | 680.7 | 691 | 700 | 708 | 715.3 | 722.1
373.15 K, x2 = 0.7928 | – | 638.3 | 644.3 | 651 | 662.7 | 672.8 | 681.7 | 689.7 | 697
423.15 K, x2 = 0.1985 | 668.8 | 670.8 | 676.3 | 682.5 | 693.7 | 703.3 | 711.9 | 719.7 | 726.8
423.15 K, x2 = 0.4136 | – | 651.3 | 657.6 | 664.5 | 676.6 | 687.1 | 696.3 | 704.6 | 712.1
423.15 K, x2 = 0.5007 | – | 640.9 | 647.6 | 654.9 | 667.6 | 678.5 | 688 | 696.5 | 704.2
423.15 K, x2 = 0.5966 | – | 628.2 | 635.3 | 643.3 | 656.9 | 668.3 | 678.2 | 687.1 | 695.2
423.15 K, x2 = 0.7928 | – | 592.3 | 601.2 | 610.7 | 626.4 | 639.2 | 650.3 | 660 | 668.8
463.15 K, x2 = 0.1985 | – | 640.3 | 647.5 | 655.5 | 669.1 | 680.6 | 690.5 | 699.3 | 707.4
463.15 K, x2 = 0.4136 | – | 618.2 | 626.5 | 635.6 | 650.7 | 663.2 | 673.9 | 683.4 | 692
463.15 K, x2 = 0.5007 | – | 606.1 | 615.2 | 624.9 | 640.9 | 654 | 665.1 | 674.9 | 683.6
463.15 K, x2 = 0.5966 | – | 593 | 602.9 | 613.2 | 630 | 643.6 | 655.2 | 665.3 | 674.4
463.15 K, x2 = 0.7928 | – | – | 563.7 | 577 | 597.1 | 612.8 | 625.8 | 637 | 647
